# Test results from ChEMBL document CHEMBL4364331, “Identification of CB1 Receptor Allosteric Sites Using Force-Biased MMC Simulated Annealing and Validation by Structure-Activity Relationship Studies” (ACS Med Chem Lett, 2019).
# Tests used:
# Cannabinoid receptor 1 [1] = target: T1, Cannabinoid receptor 1 (Homo sapiens, UniProt P21554); test: Positive allosteric modulatory activity at human CB1R expressed in CHO-K1 cells assessed as CP55940-induced cAMP level by hit-hunter cAMP assay relative to control; format: functional, cell-based
# T1 sequence (P21554 whole entry): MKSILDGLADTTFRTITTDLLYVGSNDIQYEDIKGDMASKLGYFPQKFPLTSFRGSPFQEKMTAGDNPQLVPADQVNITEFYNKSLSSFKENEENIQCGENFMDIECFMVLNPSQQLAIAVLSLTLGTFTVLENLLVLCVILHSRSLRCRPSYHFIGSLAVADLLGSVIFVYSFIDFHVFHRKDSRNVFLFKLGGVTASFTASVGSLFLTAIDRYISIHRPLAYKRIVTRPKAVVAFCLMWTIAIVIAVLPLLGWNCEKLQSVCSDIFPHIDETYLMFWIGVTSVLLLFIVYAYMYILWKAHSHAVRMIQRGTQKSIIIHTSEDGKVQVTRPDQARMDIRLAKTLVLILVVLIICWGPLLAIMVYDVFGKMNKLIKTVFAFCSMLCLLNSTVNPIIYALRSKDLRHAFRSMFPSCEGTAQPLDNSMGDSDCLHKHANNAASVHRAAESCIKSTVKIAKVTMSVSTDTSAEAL
# Cannabinoid receptor 1 [2] = target: Cannabinoid receptor 1 (Mus musculus, UniProt P47746); test: Positive allosteric modulatory activity at mouse CB1R expressed in CHO-K1 cells assessed as CP55940-induced beta-arrestin2 recruitment by pathhunter beta-arrestin assay; format: cell-based
# Chain of Cannabinoid receptor 1 (Mus musculus, UniProt P47746) (P47746 whole entry): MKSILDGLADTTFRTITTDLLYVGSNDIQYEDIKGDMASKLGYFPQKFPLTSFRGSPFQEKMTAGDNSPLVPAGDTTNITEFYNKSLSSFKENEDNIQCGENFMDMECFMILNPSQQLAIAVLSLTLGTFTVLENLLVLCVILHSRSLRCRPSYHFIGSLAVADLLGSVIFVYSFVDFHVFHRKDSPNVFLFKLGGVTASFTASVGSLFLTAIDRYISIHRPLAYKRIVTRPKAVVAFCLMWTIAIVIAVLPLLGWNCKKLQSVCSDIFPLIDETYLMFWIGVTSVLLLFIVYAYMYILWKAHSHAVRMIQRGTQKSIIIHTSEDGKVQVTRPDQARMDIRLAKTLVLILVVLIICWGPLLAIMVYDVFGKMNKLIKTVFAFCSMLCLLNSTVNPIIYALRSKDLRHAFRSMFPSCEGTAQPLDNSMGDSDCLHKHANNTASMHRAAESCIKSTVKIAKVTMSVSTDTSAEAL
# [3] = target: Cannabinoid receptor 1 (Mus musculus) (UniProt P47746); test: Positive allosteric modulatory activity at mouse CB1R expressed in CHO-K1 cells assessed as CP55940-induced beta-arrestin2 recruitment by pathhunter beta-arrestin assay relative to control; format: cell-based
# Chain of Cannabinoid receptor 1 (Mus musculus) (P47746 whole entry): as above
# Cannabinoid receptor 1 [4] = target: T1, Cannabinoid receptor 1; test: Positive allosteric modulatory activity at human CB1R expressed in CHO-K1 cells assessed as CP55940-induced cAMP level by hit-hunter cAMP assay; format: functional, cell-based
SMILES,Emax (Cannabinoid receptor 1 [1]) [%],EC50 (Cannabinoid receptor 1 [2]) [µM],Emax [3] [%],EC50 (Cannabinoid receptor 1 [4]) [µM]
Cn1c(-c2ccccc2)c(C(C[N+](=O)[O-])c2ccccc2)c2ccccc21 (stereo unspecified),0,> 10,0,> 10
O=[N+]([O-])CC(c1ccccc1)c1cc[nH]c1-c1ccccc1 (stereo unspecified),0,> 10,0,> 10
O=[N+]([O-])CCc1c(-c2ccccc2)[nH]c2ccccc12,85,> 10,0,5.53
O=[N+]([O-])CC(c1ccccc1)c1c[nH]c2ccccc12 (stereo unspecified),0,> 10,0,> 10
O=[N+]([O-])CC(c1ccccc1)c1c(C2CCCCC2)[nH]c2ccccc12 (stereo unspecified),121,> 10,0,0.992
O=[N+]([O-])CC(c1ccccc1)c1c(-c2ccccc2)[nH]c2ccccc12 (stereo unspecified),110,0.94,46,
NCC(c1ccccc1)c1c(-c2ccccc2)[nH]c2ccccc12 (stereo unspecified),12,> 10,12,> 10
O=[N+]([O-])CC(c1ccccc1)c1cn(-c2ccccc2)c2ccccc12 (stereo unspecified),0,> 10,0,> 10
